Tests used:
[1] = In vitro anti-HIV activity against HIV-1 in human peripheral blood mononuclear (PBM) cells; type: functional
[2] = tested on: Vero; assay: Cytotoxic activity against HIV-1 in rapidly dividing vero cells; type: functional, cell-based; settings: Chlorocebus sabaeus
[3] = Cytotoxic activity against HIV-1 in peripheral blood mononuclear (PBM) cells; type: functional; settings: Homo sapiens

Row | Structure (SMILES) | EC50 [1] [µM] | IC50 [2] [µM] | IC50 [3] [µM]
1 | Cc1cn([C@@H]2O[C@@H](CO)C(O[Si](C)(C)C(C)(C)C)C2(F)F)c(=O)[nH]c1=O (single isomer, unassigned) | > 100 | > 100 | > 100
2 | Cc1cn([C@H]2C[C@H](N=[N+]=[N-])[C@@H](CO)O2)c(=O)[nH]c1=O [ZIDOVUDINE] | 0.004 |  | > 100
3 | Nc1ncnc2c1ncn2[C@@H]1O[C@@H](CO)C(O)C1(F)F (single isomer, unassigned) | > 100 | > 100 | > 100
4 | CC(C)(C)[Si](C)(C)OC1[C@H](CO)O[C@H](n2ccc(N)nc2=O)C1(F)F (single isomer, unassigned) | > 100 | > 100 | > 100
5 | Nc1ncnc2c1ncn2[C@H]1O[C@@H](CO)C(O)C1(F)F (single isomer, unassigned) | 3.4 | > 100 | > 100
6 | Cc1cn([C@H]2O[C@@H](CO)C(O[Si](C)(C)C(C)(C)C)C2(F)F)c(=O)[nH]c1=O (single isomer, unassigned) | > 100 | > 100 | > 100
7 | CC(C)(C)[Si](C)(C)OC1[C@H](CO)O[C@@H](n2ccc(N)nc2=O)C1(F)F (single isomer, unassigned) | > 100 | > 100 | > 100

Reference: ChEMBL document CHEMBL1128870, “Synthesis and anti-HIV activities of 2-deoxy-2,2-difluoro--L-ribofuranosyl-pyrimidine and -purine nucleosides” (Bioorg Med Chem Lett, 1995)
